# Active and inactive are the calls of the source.
# Experiments:
# [1] = biological target: Glyceraldehyde-3-phosphate dehydrogenase (Homo sapiens, UniProt P04406)
# HEK293 [2] = experiment: cells; type: functional, cell-based; settings: Homo sapiens
# HEK293 [3] = experiment: inhibition of NOD1-driven NF-kB reporter – cell-based, luminescence, uHTS, primary screen (AID 1578); type: functional; settings: Homo sapiens
# HEK293 [4] = experiment: cells; type: functional, cell-based; settings: Homo sapiens; remark: listed apart in the source
# HEK293 [5] = experiment: NOD2 signaling inhibitors in MDP-stimulated cells, cell-based, uHTS, luminescence (AID 2001); type: functional; settings: Homo sapiens
# [6] = HIV-1 AD8 envelope cell-cell fusion blockers – cherry-pick, dose response (AID 652062); type: functional, cell-based;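 further: luciferase signal from cell-cell fusion driven by HIV-1 clade B AD8 Env; potency is for inhibitors of fusion seen as a drop in luminescence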
# [7] = biological target: T1, Short transient receptor potential channel 4 (Mus musculus, UniProt Q9QUQ5); experiment: block of DAMGO-driven TRPC4 calcium entry – cell-based, HEK293 TRPC4/mu-opioid, Fluo-4 calcium, dose response (AID 434942); type: functional;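 further: potency of inhibitors blocking the TRPC4 calcium response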
# T1 sequence (Q9QUQ5 whole entry): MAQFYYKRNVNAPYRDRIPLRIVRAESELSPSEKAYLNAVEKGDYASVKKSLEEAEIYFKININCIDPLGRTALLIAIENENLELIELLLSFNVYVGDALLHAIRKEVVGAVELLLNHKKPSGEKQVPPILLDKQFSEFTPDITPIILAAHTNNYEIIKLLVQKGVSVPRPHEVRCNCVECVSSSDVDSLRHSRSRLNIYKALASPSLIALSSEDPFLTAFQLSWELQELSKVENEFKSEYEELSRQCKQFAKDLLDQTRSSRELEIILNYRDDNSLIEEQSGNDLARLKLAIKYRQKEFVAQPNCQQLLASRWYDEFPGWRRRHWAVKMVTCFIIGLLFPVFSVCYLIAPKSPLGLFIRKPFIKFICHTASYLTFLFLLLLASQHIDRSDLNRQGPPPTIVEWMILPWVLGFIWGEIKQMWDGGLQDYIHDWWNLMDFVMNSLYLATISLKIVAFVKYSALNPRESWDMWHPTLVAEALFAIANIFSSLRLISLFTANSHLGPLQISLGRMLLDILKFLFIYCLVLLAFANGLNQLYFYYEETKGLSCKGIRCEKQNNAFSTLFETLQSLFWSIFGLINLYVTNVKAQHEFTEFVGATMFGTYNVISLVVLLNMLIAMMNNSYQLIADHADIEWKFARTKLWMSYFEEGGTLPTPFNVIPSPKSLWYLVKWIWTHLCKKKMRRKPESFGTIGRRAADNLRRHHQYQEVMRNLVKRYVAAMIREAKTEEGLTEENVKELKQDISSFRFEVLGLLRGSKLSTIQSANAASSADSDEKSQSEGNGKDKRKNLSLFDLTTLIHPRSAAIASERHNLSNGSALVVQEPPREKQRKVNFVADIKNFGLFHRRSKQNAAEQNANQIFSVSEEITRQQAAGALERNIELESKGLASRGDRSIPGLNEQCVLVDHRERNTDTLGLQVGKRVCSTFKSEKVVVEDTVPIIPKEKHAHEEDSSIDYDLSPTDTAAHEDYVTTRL
# Mucolipin-3 = biological target: T2, Mucolipin-3 (Homo sapiens, UniProt Q8TDD5); experiment: Dose response cell-based high-throughput screening assay for agonists of the transient receptor potential channel ML3 (TRPML3). [Related pubchem assays: 1526, 1424, 1448 ]; type: functional
# T2 sequence (Q8TDD5 whole entry): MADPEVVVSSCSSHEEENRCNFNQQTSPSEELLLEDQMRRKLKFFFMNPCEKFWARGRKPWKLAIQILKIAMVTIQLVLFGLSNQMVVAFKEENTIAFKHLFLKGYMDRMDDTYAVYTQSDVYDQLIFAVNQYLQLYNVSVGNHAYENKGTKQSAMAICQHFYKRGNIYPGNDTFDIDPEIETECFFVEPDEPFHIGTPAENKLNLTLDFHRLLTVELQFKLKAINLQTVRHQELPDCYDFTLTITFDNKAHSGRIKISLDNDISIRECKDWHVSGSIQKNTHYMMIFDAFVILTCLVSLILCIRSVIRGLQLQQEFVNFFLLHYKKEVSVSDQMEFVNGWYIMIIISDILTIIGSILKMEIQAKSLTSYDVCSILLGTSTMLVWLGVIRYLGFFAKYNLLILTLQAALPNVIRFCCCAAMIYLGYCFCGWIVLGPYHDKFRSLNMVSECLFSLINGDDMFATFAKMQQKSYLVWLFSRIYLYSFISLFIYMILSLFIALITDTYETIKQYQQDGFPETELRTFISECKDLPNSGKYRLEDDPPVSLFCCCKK
# Ion channel NompC = Ion channel NompC (Danio rerio, UniProt Q7T1G6); experiment: Fluorescence counterscreen assay for TRPML3 agonists: dose response cell-based high-throughput screening assay to identify agonists of the transient receptor potential channel N1 (TRPN1). [Related pubchem assays: 1526, 1424, 1448 ]; type: functional
# [8] = biological target: Glucose-6-phosphate 1-dehydrogenase (Homo sapiens, UniProt P11413); experiment: inhibition of Homo sapiens G6PD, dose series – biochemical, fluorescence, selectivity assay for P. falciparum G6PD inhibitor project, dose response (AID 504792); type: functional
# [9] = viability of uninfected HEp-2 cells – cell-based, HTS, cytotoxicity control for RSV inhibitor project, dose response (AID 2410); type: functional; settings: human respiratory syncytial virus
# Vero = experiment: cells; type: functional, cell-based; settings: Chlorocebus sabaeus
# Escherichia coli [10] = experiment: microbe, parasite or virus in culture
# Escherichia coli [11] = experiment: microbe, parasite or virus in culture; remark: listed apart in the source
# [12] = biological target: T3, Rac GTPase-activating protein 1 (Homo sapiens, UniProt Q9H0H5); experiment: blockers of MgcRacGAP-driven Rac1 GTP hydrolysis – biochemical, ADP Hunter fluorescence, primary and confirmatory, confirmation (AID 624330); type: functional
# T3 sequence (Q9H0H5 whole entry): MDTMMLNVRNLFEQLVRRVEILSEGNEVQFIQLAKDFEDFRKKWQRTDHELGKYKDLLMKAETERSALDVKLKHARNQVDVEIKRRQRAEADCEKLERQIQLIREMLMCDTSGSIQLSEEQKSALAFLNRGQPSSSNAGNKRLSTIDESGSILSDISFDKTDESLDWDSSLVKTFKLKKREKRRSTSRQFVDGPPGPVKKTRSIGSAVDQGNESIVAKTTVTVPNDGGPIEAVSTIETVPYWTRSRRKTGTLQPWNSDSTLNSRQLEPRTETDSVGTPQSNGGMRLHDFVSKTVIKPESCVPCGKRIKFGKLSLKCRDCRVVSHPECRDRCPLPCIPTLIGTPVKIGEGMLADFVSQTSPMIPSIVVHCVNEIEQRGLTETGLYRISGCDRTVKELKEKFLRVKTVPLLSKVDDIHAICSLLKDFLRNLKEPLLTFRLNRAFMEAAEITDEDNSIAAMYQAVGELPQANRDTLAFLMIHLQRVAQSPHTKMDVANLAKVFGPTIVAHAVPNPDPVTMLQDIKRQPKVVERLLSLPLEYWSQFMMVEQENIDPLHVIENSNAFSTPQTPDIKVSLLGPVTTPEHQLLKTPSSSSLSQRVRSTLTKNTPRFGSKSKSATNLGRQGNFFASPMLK
# Glucose-6-phosphate 1-dehydrogenase, sequence (P11413 whole entry): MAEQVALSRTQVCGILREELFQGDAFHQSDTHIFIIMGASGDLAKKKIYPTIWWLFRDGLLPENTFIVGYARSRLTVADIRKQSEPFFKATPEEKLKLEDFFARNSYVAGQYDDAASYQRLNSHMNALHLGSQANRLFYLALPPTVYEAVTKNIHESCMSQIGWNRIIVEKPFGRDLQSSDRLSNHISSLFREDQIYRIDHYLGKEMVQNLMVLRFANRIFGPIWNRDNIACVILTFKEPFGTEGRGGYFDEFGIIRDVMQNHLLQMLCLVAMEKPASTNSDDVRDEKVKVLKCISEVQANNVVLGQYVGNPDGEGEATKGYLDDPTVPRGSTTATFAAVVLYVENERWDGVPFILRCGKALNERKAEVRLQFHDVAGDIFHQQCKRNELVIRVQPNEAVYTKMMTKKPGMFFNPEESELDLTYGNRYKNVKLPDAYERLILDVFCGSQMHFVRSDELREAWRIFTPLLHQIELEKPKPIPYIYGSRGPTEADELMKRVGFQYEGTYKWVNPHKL
# Ion channel NompC, sequence (Q7T1G6 whole entry): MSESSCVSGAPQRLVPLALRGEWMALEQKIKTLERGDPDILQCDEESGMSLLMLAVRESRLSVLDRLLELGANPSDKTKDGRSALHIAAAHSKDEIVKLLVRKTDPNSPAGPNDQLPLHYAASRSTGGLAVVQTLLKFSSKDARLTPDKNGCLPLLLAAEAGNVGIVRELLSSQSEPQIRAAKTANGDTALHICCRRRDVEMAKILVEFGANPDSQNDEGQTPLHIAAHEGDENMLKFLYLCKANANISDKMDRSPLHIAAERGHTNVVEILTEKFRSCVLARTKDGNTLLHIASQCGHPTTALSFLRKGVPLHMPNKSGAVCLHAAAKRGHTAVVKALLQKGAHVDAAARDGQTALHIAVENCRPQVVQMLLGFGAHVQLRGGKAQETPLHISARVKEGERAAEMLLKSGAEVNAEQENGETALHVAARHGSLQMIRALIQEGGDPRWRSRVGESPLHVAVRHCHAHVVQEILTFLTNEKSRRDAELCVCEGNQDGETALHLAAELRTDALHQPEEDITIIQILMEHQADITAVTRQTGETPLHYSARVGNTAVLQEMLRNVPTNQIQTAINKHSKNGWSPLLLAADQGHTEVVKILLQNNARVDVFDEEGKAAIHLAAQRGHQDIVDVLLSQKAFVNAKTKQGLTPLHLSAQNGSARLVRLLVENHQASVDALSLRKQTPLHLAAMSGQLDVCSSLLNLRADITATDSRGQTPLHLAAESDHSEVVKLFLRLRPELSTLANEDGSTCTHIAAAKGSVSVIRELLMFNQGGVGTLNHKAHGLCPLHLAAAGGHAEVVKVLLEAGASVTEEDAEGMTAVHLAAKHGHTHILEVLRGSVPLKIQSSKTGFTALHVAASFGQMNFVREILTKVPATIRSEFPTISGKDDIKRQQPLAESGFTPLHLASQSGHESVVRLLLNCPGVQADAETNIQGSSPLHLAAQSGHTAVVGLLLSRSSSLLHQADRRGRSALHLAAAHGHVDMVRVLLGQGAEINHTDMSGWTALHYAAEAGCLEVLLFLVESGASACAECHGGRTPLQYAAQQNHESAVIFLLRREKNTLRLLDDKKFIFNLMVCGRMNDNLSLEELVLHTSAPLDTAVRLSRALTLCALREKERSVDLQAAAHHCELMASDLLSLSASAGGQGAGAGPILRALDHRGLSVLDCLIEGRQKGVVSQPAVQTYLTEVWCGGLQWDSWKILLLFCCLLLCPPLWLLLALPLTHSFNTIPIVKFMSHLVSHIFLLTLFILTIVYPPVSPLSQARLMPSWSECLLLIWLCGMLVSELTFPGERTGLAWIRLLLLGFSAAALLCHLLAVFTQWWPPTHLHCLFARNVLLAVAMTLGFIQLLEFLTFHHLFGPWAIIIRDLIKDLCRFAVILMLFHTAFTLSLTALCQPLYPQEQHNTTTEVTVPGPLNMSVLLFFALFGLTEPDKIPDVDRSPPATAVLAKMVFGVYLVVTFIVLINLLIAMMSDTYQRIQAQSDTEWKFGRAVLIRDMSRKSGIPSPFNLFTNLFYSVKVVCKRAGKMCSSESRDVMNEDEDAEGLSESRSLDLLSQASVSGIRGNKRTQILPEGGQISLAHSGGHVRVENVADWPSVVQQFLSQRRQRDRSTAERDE
# Glyceraldehyde-3-phosphate dehydrogenase, sequence (P04406 whole entry): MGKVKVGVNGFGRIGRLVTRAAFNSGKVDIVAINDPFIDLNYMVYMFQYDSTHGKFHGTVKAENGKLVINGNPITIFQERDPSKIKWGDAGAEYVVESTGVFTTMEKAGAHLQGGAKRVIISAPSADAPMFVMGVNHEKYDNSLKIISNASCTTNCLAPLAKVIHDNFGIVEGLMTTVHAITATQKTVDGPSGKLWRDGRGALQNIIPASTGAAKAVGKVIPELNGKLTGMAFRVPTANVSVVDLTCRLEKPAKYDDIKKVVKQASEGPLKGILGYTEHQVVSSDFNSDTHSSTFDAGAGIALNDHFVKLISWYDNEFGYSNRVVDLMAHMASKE
structure (smiles),measurement,setting,value
COc1cccc(N2C(=O)C(Cl)=C(N3CCN(C/C=C/c4ccccc4)CC3)C2=O)c1,IC50,[1],> 50 µM (inconclusive)
O=C(Nc1nc(-c2ccc3c(c2)OCO3)cs1)c1ccncc1,IC50,HEK293 [2],4.5 µM (active)
same,EC50,HEK293 [3],3.32 µM (active)
same,IC50,HEK293 [4],11 µM (active)
same,IC50,HEK293 [5],4.79 µM (active)
same,AC50,[6],4.67 µM (active)
CCCCc1nc2ccccc2c(N)c1CCC.O=C(O)c1cc([N+](=O)[O-])ccc1Cl,EC50,[7],1.19 µM (active)
CC1=CC(C)(C)N(C(=O)CN2C(=O)c3ccccc3C2=O)c2ccccc21,EC50,Mucolipin-3,1.45 µM (active)
same,EC50,Ion channel NompC,> 29.9 µM (not active)
CCOc1ccccc1NS(=O)(=O)c1c(C)noc1C,IC50,[8],> 80 µM (inactive)
Cc1cc(NC(=O)C(C)SCC(=O)N(Cc2ccccc2)c2ccccc2)no1 (configuration not stated),IC50,cells,39.6 µM (active)
same,CC50,[9],29.9 µM (active)
same,IC50,Vero,> 25 µM (active)
Cn1c(C(=O)OCC(=O)NCC2CCCO2)cc2sccc21 (configuration not stated),AC50,Escherichia coli [10],149 µM (active)
same,AC50,Escherichia coli [11],25.8 µM (active)
C=CCOc1cccc(C(=O)N2CCCC(CCC(=O)NCc3ccccc3F)C2)c1 (configuration not stated),AC50,Escherichia coli [10],41.3 µM (active)
c1cc2c(cc1NC1CCCCCC1)OCO2,IC50,[8],> 80 µM (inactive)
same,IC50,[12],48.4 µM (active)
C/C(N)=C(/C#N)C(=O)COC(=O)c1ccccc1Cc1ccccc1,IC50,cells,45 µM (active)
same,CC50,[9],32.2 µM (active)
C/C(Cn1nnc([N+](=O)[O-])n1)=N\NC(=O)c1ccc(O)cc1O,AC50,Escherichia coli [11],84.9 µM (active)
same,IC50,[8],> 80 µM (inactive)

# Source: ChEMBL document CHEMBL1201862, “PubChem BioAssay data set” (2004)
